In patent US9499485B2, “Compounds that are S1P modulating agents and/or ATX modulating agents” (BIOGEN MA INC., priority 2012, dated 2016):

Legend:
Human ATX protein = biological target: T1, Human ATX protein (Homo sapiens, UniProt Q13822); experiment: ATX biochemical FRET assay with FS-3 substrate; conditions: FS-3 2 μM, ATX 1.0 μg/mL, binned table, read-out: IC50 (μm)
T1 construct: made in house
Source text: ATX (Autotaxin) is a 125 KDa glycoprotein with lysophospholipase D (LPLD) activity that generates the bioactive lipid lysophosphatidic acid (LPA) from lysophosphatidylcholine (LPC). The ATX biochemical assay utilizes a FRET (fluorescence resonance energy transfer) technology platform. The fluorescence signal of FRET substrate FS-3 is quenched due to intra-molecular FRET of a fluorophore to a non-fluorescing quencher (Ferguson, C. G., et al., Org. Lett. 2006 May 11; 8(10): 2023-2026, which is incorporated by reference in its entirety). ATX catalyzes the hydrolysis of the substrate which separates the dabsyl quencher from the fluorescein reporter, which becomes fluorescent. The reaction is monitored by a SpectraMax M5 (Molecular Devices, Sunnyvale, Calif.) with at excitation wavelength 485 nm and emission wavelength 535 nm.
2×ATX assay buffer: 100 mM Tris, 280 mM NaCl, 10 mM KCl, 2 mM CaCl2, 2 mM MgCl2, pH 7.4.
Human ATX protein: expressed and purified in house. Stored at −80° C.
Substrate FS-3 (Echelon, L-2000): 100 μg in 77.74 μL H2O (1 mM stock), stored at −20° C.
Compound dilution—All compounds were provided at 10 mM in 100% DMSO. In the first well, 2 μL of 10 mM compound was added to 78 μL of DMSO (1:40 dilution). In subsequent wells 3-fold dilution (total 10 dilutions) were performed.
1×ATX assay buffer was made up with a final concentration of 1 mg/mL fatty acid free-BSA using 2×ATX assay buffer, 10 mg/ml fatty acid free-BSA and ddH2O.
ATX protein was diluted with 1×ATX assay buffer to a concentration of 1.32 μg/mL (1.32×). 38 μL was added per well to the assay plate. The final concentration of ATX in the reaction as 1.0 μg/mL.
2 μL per well of compounds was transferred to provide the desired concentration. The plate was centrifuged, then incubated at room temperature for 30 minutes on the shaker.
FS-3 was diluted with 1×ATX assay buffer to a concentration of FS-3 of 10 μM (5×). Then, 10 μL was added per well to the assay plate. The final concentration of FS-3 in the reaction was 2 μM. The plate was centrifuged. The plate was kept shaking at room temperature for 2 hours. Because FS-3 substrate is light sensitive, plates were kept covered and protected from light.
Fluorescence was measured using SpectraMax M5 (excitation at 485 nm/emission at 538 nm, top read).

human S1P4 = biological target: T2, human S1P4 (Homo sapiens, UniProt O95977); experiment: S1P receptor calcium flux assay, antagonist format (S1P4 antagonist activity); format: cell-based; conditions: calcium mobilization, recombinant CHEM cells expressing human S1P4, stimulated with EC80 of reference agonist
T2 construct: host or cells: recombinant CHEM cells
T2 sequence (O95977 1-384): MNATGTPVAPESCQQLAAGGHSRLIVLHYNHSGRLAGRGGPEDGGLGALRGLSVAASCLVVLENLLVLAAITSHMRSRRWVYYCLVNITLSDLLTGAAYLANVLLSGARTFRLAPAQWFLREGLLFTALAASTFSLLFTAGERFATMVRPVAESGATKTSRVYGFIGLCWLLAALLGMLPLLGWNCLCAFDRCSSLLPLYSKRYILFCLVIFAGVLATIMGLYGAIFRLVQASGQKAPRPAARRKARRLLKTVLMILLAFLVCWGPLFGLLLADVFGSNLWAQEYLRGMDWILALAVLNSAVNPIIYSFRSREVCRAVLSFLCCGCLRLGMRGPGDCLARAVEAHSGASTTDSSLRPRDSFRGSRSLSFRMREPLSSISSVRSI
Procedure: Compounds that are not specific for a particular S1P receptor can cause undesirable side effects. Accordingly, compounds are tested to identify those that are specific. Accordingly, the test compounds are tested in a calcium mobilization assay/S1P receptor activity assay. The procedure is essentially as described in Davis et al. (2005) Journal of Biological Chemistry, vol. 280, pp. 9833-9841, which is incorporated by reference in its entirety with the following modifications. Calcium mobilization assays are performed in recombinant CHEM cells expressing human S1P1, S1P2, S1P3, S1P4, or S1P5 purchased from Millipore (Billerica, Mass.). To detect free intracellular calcium, S1P1, S1P2, S1P3, S1P4, or S1P5 cells are loaded with FLIPR Calcium 4 dye from Molecular Devices (Sunnyvale, Calif.). Cells are imaged for calcium mobilization using a FLIPR^TETRA equipped with a 96-well dispense head.
Agonist percentage activation determinations were obtained by assaying sample compounds and referencing the Emax control for each receptor profiled. Antagonist percentage inhibition determinations were obtained by assaying sample compounds and referencing the control EC80 wells for each receptor profiled.
Sample compounds were plated in an eight-point, four-fold dilution series in duplicate with a top concentration of 10 μM. The concentrations described here reflect the final concentration of the compounds during the antagonist assay. During the agonist assay the compound concentrations were 1.25 fold higher to allow for the final desired concentration to be achieved with further dilution by EC80 of reference agonists during the antagonist assay.
Reference agonists were handled as mentioned above serving as assay control. The reference agonists were handled as described above for Emax.
Assay was read for 180 seconds using the FLIPR^TETRA (This assay run added sample compounds and reference agonist to respective wells). At the completion of the first “Single Addition” assay run, assay plate was removed from the FLIPR^TETRA and placed at 25° C. for seven (7) minutes.
Using the EC80 values determined during the agonist assay, stimulated all pre-incubated sample compound and reference antagonist (if applicable) wells with EC80 of reference agonist. Read for 180 seconds using the FLIPR^TETRA (This assay added reference agonist to respective wells—then fluorescence measurements were collected to calculate percentage inhibition values).

Row | Structure (SMILES) | IC50 (Human ATX protein) [µM] | IC50 (human S1P4) [µM]
1 | O=C(O)C1CC2CCC(C1)N2Cc1cccc2ccc(O[C@H]3CC[C@@H](C(F)(F)F)CC3)c(C(F)(F)F)c12 (stereo partly drawn) [Example 26, 8-((8-(trifluoromethyl)-7-((cis-4-(trifluoromethyl)cyclohexyl)oxy)naphthalen-1-yl)methyl)-8-azabicyclo[3.2.1]octane-3-carboxylic acid] | 0.5 to 5 | 
2 | O=C(O)C1CC2CCCC(C1)N2Cc1cccc2ccc(O[C@H]3CC[C@@H](C(F)(F)F)CC3)c(C(F)(F)F)c12 (stereo partly drawn) [Example 27, 9-((8-(trifluoromethyl)-7-((cis-4-(trifluoromethyl)cyclohexyl)oxy)naphthalen-1-yl)methyl)-9-azabicyclo[3.3.1]nonane-3-carboxylic acid] | 0.5 to 5 | 
3 | CC(C)(C)[C@H]1CC[C@H](Oc2ccc3c(CN4CCC(C(=O)O)CC4)cccc3c2)CC1 [Example 31, 1-((6-((trans-4-(tert-butyl)cyclohexyl)oxy)naphthalen-1-yl)methyl)piperidine-4-carboxylic acid] |  | ≤ 5
4 | CCCCCCCOc1ccc2c(CN3CCC(C(=O)O)CC3)cccc2c1 [Example 32, 1-((6-(heptyloxy)naphthalen-1-yl)methyl)piperidine-4-carboxylic acid] | > 5 | ≤ 5
5 | CC(C)(C)[C@H]1CC[C@H](Oc2ccc3c(CN4CCC(CC(=O)O)CC4)cccc3c2)CC1 [Example 33, 2-(1-((6-((trans-4-(tert-butyl)cyclohexyl)oxy)naphthalen-1-yl)methyl)piperidin-4-yl)acetic acid] | > 5 | ≤ 5
6 | CCCCCCCOc1ccc2c(CN3CCC(CC(=O)O)CC3)cccc2c1 [Example 34, 2-(1-((6-(heptyloxy)naphthalen-1-yl)methyl)piperidin-4-yl)acetic acid] | > 5 | ≤ 5

Second part, the compound after the results:

Row | IC50 (Human ATX protein) [µM] | IC50 (human S1P4) [µM] | Structure (SMILES)
7 | 0.5 to 5 |  | O=C(O)C1CCN(Cc2cccc3ccc(O[C@H]4CC[C@@H](C(F)(F)F)CC4)c(C(F)(F)F)c23)CC1 [Example 25, 1-((8-(trifluoromethyl)-7-((cis-4-(trifluoromethyl)cyclohexyl)oxy)naphthalen-1-yl)methyl)piperidine-4-carboxylic acid]
8 | 0.5 to 5 |  | O=C(O)C[C@H]1CCCN(Cc2cccc3ccc(O[C@H]4CC[C@@H](C(F)(F)F)CC4)c(C(F)(F)F)c23)C1 [Example 28, 2-((R)-1-((8-(trifluoromethyl)-7-((cis-4-(trifluoromethyl)cyclohexyl)oxy)naphthalen-1-yl)methyl)piperidin-3-yl)acetic acid]
9 | > 5 | ≤ 5 | CC(C)(C)[C@H]1CC[C@H](Oc2ccc3cccc(CN4CCC(C(=O)O)CC4)c3c2)CC1 [Example 29, 1-((7-((trans-4-(tert-butyl)cyclohexyl)oxy)naphthalen-1-yl)methyl)piperidine-4-carboxylic acid]
10 | > 5 | ≤ 5 | CCCCCCCOc1ccc2cccc(CN3CCC(C(=O)O)CC3)c2c1 [Example 30, 1-((7-(heptyloxy)naphthalen-1-yl)methyl)piperidine-4-carboxylic acid]
